# Experimental data from ChEMBL document CHEMBL1126121, “Non-prostanoid thromboxane A2 receptor antagonists with a dibenzoxepin ring system. 1” (J Med Chem, 1992).
# Several values for one entry are separate records, joined by “and”; a condition that tells them apart may be missing. Identical values can stand only once.
# Key:
# Cavia porcellus [1] = assay: Compound was tested ex vivo for it's inhibition of U-46619 induced platelet aggregation in the guinea pig after 4 hr of administration at dose 10 mg/kg; assay type: functional
# Cavia porcellus [2] = assay: Inhibitory effect of the compounds on U-46619-induced platelet aggregation ex vivo in guinea pig at the dose of 10 mg/kg 4 hr after oral administration; assay type: functional
# [3] = target: T1, Thromboxane A2 receptor (Homo sapiens) (UniProt P21731); assay: Binding affinity for thromboxane A2 receptor by measuring ability to displace [3H]U-46619 from guinea pig platelets at 1 uM; details: Cavia porcellus, target entry is the homologue from another species
# T1 sequence (whole entry): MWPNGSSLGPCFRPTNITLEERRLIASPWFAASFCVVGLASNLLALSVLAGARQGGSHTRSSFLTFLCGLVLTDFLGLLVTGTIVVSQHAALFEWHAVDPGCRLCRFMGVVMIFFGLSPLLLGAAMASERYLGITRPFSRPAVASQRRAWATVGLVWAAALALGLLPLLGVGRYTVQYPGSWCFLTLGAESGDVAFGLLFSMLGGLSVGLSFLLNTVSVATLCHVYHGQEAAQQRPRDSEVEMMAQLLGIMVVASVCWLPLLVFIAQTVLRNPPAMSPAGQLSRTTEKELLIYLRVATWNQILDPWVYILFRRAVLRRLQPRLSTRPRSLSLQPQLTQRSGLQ
# Cavia porcellus [4] = assay: Inhibitory effect of the compounds on U-46619-induced platelet aggregation ex vivo in guinea pig at the dose of 10 mg/kg 2 hr after oral administration; assay type: functional
# [5] = test system: Thromboxane-A synthase (Bos taurus); assay: Inhibitory effect against thromboxane A2 synthase from bovine platelets at 10 uM concentration
# Cavia porcellus [6] = assay: Compound was tested ex vivo for it's inhibition of U-46619 induced platelet aggregation in the guinea pig after 2 hr of administration at dose 10 mg/kg; assay type: functional
# Cavia porcellus [7] = assay: Compound was tested ex vivo for it''s inhibition of U-46619 induced platelet aggregation in the guinea pig ex vivo after 7 hr of administration at dose 10 mg/kg; assay type: functional
# [8] = target: T1, Thromboxane A2 receptor (Homo sapiens); assay: Binding affinity for thromboxane A2 receptor by measuring its ability to displace [3H]U-46619 from guinea pig platelets at 0.1 uM; details: Cavia porcellus, target entry is the homologue from another species
# [9] = target: T2, Thromboxane-A synthase (Homo sapiens) (UniProt P24557); assay: Inhibitory activity against thromboxane A2 synthase obtained from bovine platelet microsomes at 10 uM; details: Bos taurus, target entry is the homologue from another species
# T2 sequence (whole entry): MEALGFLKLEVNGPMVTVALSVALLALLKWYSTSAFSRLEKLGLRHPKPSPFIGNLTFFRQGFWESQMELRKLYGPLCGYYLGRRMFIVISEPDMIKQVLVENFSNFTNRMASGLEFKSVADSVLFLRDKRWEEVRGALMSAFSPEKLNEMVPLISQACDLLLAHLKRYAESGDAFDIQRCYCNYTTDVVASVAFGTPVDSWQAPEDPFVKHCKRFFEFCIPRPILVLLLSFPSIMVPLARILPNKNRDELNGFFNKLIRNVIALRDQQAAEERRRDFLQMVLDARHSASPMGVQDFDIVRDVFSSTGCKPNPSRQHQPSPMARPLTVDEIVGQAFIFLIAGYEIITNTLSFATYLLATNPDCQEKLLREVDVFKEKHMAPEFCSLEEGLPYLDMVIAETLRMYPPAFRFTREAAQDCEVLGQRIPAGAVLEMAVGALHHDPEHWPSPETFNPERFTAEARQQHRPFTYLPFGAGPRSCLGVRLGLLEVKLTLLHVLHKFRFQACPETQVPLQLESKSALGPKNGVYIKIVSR
# [10] = target: T1, Thromboxane A2 receptor (Homo sapiens); assay: Inhibitory effect against binding thromboxane A2 receptor on guinea pig platelets using [3H]U-46619 as radioligand at 1 uM concentration; details: Cavia porcellus, target entry is the homologue from another species
# Cavia porcellus [11] = assay: Inhibitory effect of the compounds on U-46619-induced platelet aggregation ex vivo in guinea pig at the dose of 10 mg/kg 7 hr oral after administration; assay type: functional
# [12] = target: T1, Thromboxane A2 receptor (Homo sapiens); assay: Compound was tested for its binding affinity at Thromboxane A2 receptor by measuring its ability to displace [3H]U-46619 from guinea pig platelets; details: Cavia porcellus; target entry is the homologue from another species; concentration not given here
# [13] = target: T1, Thromboxane A2 receptor (Homo sapiens); assay: Compound was tested for its binding affinity at Thromboxane A2 receptor by measuring its ability to displace [3H]-U-46,619 from guinea pig platelets at 1 uM; details: Cavia porcellus, target entry is the homologue from another species
# Cavia porcellus [14] = assay: Compound was tested ex vivo for it''s inhibition of U-46619 induced platelet aggregation in the guinea pig after 7 hr of administration at dose 10 mg/kg; assay type: functional
# [15] = target: T1, Thromboxane A2 receptor (Homo sapiens); assay: Compound was tested for its binding affinity at TXA2 receptor by measuring its ability to displace [3H]U-46619 from guinea pig platelets at 1 uM; details: Cavia porcellus, target entry is the homologue from another species
# Cavia porcellus [16] = assay: Compound was tested ex vivo for it's inhibition of U-46619 induced platelet aggregation in the guinea pig after 2 hr of administration at dose 30 mg/kg; assay type: functional
# Cavia porcellus [17] = assay: Compound was tested ex vivo for it's inhibition of U-46619 induced platelet aggregation in the guinea pig after 4 hr of administration at dose 100 mg/kg; assay type: functional
# Cavia porcellus [18] = assay: Compound was tested ex vivo for it's inhibition of U-46619 induced platelet aggregation in the guinea pig after 2 hr of administration at dose 100 mg/kg; assay type: functional
# Cavia porcellus [19] = assay: Inhibitory effect of the compounds on U-46619-induced platelet aggregation ex vivo in guinea pig at the dose of 30 mg/kg 2 hr after oral administration; assay type: functional
# Cavia porcellus [20] = assay: Compound was tested ex vivo for it's inhibition of U-46619 induced platelet aggregation in the guinea pig after 4 hr of administration at dose 30 mg/kg; assay type: functional
# Cavia porcellus [21] = assay: Inhibitory effect of the compounds on U-46619-induced platelet aggregation ex vivo in guinea pig at the dose of 100 mg/kg 4 hr after oral administration; assay type: functional
# Cavia porcellus [22] = assay: Inhibitory effect of the compounds on U-46619-induced platelet aggregation ex vivo in guinea pig at the dose of 100 mg/kg 2 hr after oral administration; assay type: functional
# Cavia porcellus [23] = assay: Compound was tested ex vivo for it''s inhibition of U-46619 induced platelet aggregation in the guinea pig after 4 hr of administration at dose 10 mg/kg; assay type: functional
# Cavia porcellus [24] = assay: Compound was tested ex vivo for it''s inhibition of U-46619 induced platelet aggregation in the guinea pig after 2 hr of administration at dose 10 mg/kg; assay type: functional
SMILES,Aggregation (Cavia porcellus [1]) [%],Platelet aggregation (Cavia porcellus [2]) [%],inhibition [3] [%],Platelet aggregation (Cavia porcellus [4]) [%],inhibition [5] [%],Aggregation (Cavia porcellus [6]) [%],inhibition [8] [%],inhibition [9] [%],inhibition [10],also measured
O=C(O)c1ccc2c(c1)C(SCCNS(=O)(=O)c1cccs1)c1ccccc1CO2 (stereo unspecified),2.1,2.1,99,14.3,33,14.3,84,33,99%,Aggregation (Cavia porcellus [7]): 12.3%; Platelet aggregation (Cavia porcellus [11]): 12.3%
O=C(O)c1ccc2c(c1)C(SCCNS(=O)(=O)/C=C/c1ccccc1)c1ccccc1CO2 (racemic) [listing 1 of 2 here],2.3,–,–,–,–,0,–,–,–,Aggregation (Cavia porcellus [7]): 10.7%
O=C(O)c1ccc2c(c1)C(SCCNS(=O)(=O)/C=C/c1ccccc1)c1ccccc1CO2 (racemic) [listing 2 of 2 here],–,–,–,–,–,–,–,–,97%,inhibition [12]: 92%; inhibition [13]: 97%
O=C(O)c1ccc2c(c1)C(SCCNS(=O)(=O)c1ccccc1)c1ccccc1CO2 (stereo unspecified),4.5,4.5,92,11.8,–,11.8,72,–,92% and 84%,Aggregation (Cavia porcellus [14]): 12.3%; Platelet aggregation (Cavia porcellus [11]): 12.3%
O=C(O)c1ccc2c(c1)C(SCCNS(=O)(=O)c1ccc3ccccc3c1)c1ccccc1CO2 (stereo unspecified),–,–,–,–,38,–,77,38,95%,pInhibition [15]: 95%
O=C(O)COc1ccc(CCNS(=O)(=O)c2ccccc2)cc1 [SULOTROBAN],–,87,–,–,–,–,–,–,31%,inhibition [12]: -5%; Aggregation (Cavia porcellus [16]): 28%; Aggregation (Cavia porcellus [17]): 57%; inhibition [13]: 31%; Aggregation (Cavia porcellus [18]): 12.7%; Platelet aggregation (Cavia porcellus [19]): 28%; Aggregation (Cavia porcellus [20]): 87%; Platelet aggregation (Cavia porcellus [21]): 57%; Platelet aggregation (Cavia porcellus [22]): 12.7%
O=C(NCCSC1c2ccccc2COc2ccc(C(=O)O)cc21)OCc1ccccc1 (stereo unspecified),–,57.3,96,8.7,56,–,79,56,96%,Aggregation (Cavia porcellus [23]): 57.3%; Aggregation (Cavia porcellus [24]): 8.7%
